Results as given in patent US8507547B2, “Anti-fatigue agents and oral compositions containing andrographolide as active ingredient” (Suntory Holdings Limited, priority 2007, dated 2013).

Tested on: Balb/c mice
Experiment: Water-immersion and sleep-disturbance test (weight-loaded forced swimming test, swimming time)
Assay type: in vivo
Excerpt: The first test is measurement of a swimming time in a water-immersion and sleep-disturbance test. This is described in detail below in Example 1. Mice raised in an environment, such as a water-immersed environment, where they were not allowed to take enough sleep or to take a comfortable posture so that they could take neither physical nor mental rest were weighted and forced to swim, and a length of time that passed until noses of the mice sank under the water for a period of 10 seconds or longer was measured (weight-loaded forced swimming test) to determine their fatigue level.
That is to say, since this animal model is a physical and mental fatigue model as well as an organ fatigue model described below, anti-fatigue action against physical and/or mental fatigue would be confirmed if the swimming time becomes longer as a result of administration of the test substance. Such anti-fatigue action is considered to be involved in reduction in fatigue stress, maintenance of physical energy under fatigue conditions (enhancement of body strength), improvement in endurance, and the like.
Effect of andrographolide on fatigue from water immersion and sleep disturbance was examined using a partially modified method of Tanaka et al. (Neuroscience Let. 352, 159-162, 2003). […] Four out of the five groups were reared as water-immersed groups; the groups were kept in cages in such a manner that each of the cages was filled with tap water at 23° C. with a water depth of 7 mm, instead of a floor covering, so that the mice were immersed in water and deprived of sleep. The mice were immersed in water for two days, andrographolide (Aldrich corp., purity 98%) was forcibly administered orally to the mice with doses of 0.5, 2, 8 mg per kilogram of body weight once daily during the two days (water-immersed and andrographolide-administered group). As a control group, one of the groups was immersed in water for two days, and distilled water was forcibly given orally to the group once daily during the two days (water-immersed control group). The remaining one of the five groups was reared as a normally-reared group; this group was kept in a cage with a normal floor covering, and distilled water was forcibly given orally to the group once daily during the two-day rearing (normally-reared control group). After the two days, each of the mice was provided with a weight corresponding to 8% of its body weight, which weight was attached to its tale, and then the mice were forced to swim in a water tank having a diameter of 18 cm and filled with water having a depth of 30 cm. A length of time that passed until the mice sank under water for a period of 10 seconds or longer (swimming time) was measured (weight-loaded forced swimming test).
The swimming time of the mice of the water-immersed group was shorter than that of the mice of the normally-reared group because of fatigue from the water immersion and sleep disturbance. The effect of andrographolide on the fatigue from the water immersion and sleep disturbance was examined by determining recovery of a reduction in the swimming time of the mice of the water-immersed group after the administration of andrographolide.
In accordance with the procedure described in Example 1, effect on water-immersion and sleep-disturbance fatigue was examined in a case in which andrographolide was administered alone to mice, a case in which alpha-lipoic acid was administered alone to mice, and a case in which a combination of andrographolide and alpha-lipoic acid was administered to mice. Eight-week-old male Balb/c mice were used as a test animal. […] Four out of the five groups served as water-immersed groups, and each of the groups was kept in a cage filled with tap water at 23° C. with a water depth of 7 mm, instead of a floor covering, so that the mice were immersed in water and deprived of sleep. […]

## O=C(O)CCCCC1CCSS1 (stereo not drawn) [alpha-lipoic acid, 1,2-dithiolane-3-pentanoic acid, reference compound]
Example 5, FIG. 5, andrographolide 0.25 mg/kg (5a), alpha-lipoic acid 50 mg/kg (5b) or both (5c), orally once daily during two days of water immersion
  shortening of the swimming time: prevented from shortening
Example 5, swimming time of normally-reared group minus water-immersed control group = 100%, andrographolide 0.25 mg/kg, alpha-lipoic acid 50 mg/kg, alone or combined
  increase rate of the swimming time: 13%
alpha-lipoic acid 50 mg/kg alone or with andrographolide 0.25 mg/kg, during fatigue stress
  anti-fatigue action in the fatigue animal model of mice: anti-fatigue action was produced
